Measured values as given in patent US5968956A, “Substituted piperidine derivative and medicine comprising the same” (SS Pharmaceutical Co., Ltd., priority 1995, dated 1999).
Structures can show the parent of a compound that is named as a salt.

What was measured:
[1] = test system: bladder specimens enucleated from rats; assay: Anticholinergic effect on bladder specimens enucleated from rats (contraction caused by acetylcholine); type: cell-based, rat (male S. D.); conditions: Rattus norvegicus; inhibition of contraction caused by acetylcholine (10^-5 M); Tyrode's solution 32° C.; agent applied 5 minutes before
Description: Anticholinergic effect on bladder specimens enucleated from rats:
(§1) Male S. D. rats weighing 220-450 g were exsanguinated to death to enucleate their bladders, thereby preparing vertically split specimens (3-5 mm wide by 10-15 mm long) with each triangular part removed therefrom. Each of the specimens was suspended in a Magnus bath filled with a Tyrode's solution (32° C.) aerated by a mixed gas (95% O2, 5% CO2) with a load of 0.5 g applied thereto. The response of the specimen was recorded in terms of isometric contraction through a tension transducer. After the stability of the specimen was attained, an effect on contraction caused by acetylcholine (10^-5 M) was investigated. Incidentally, agents to be tested were applied to the individual specimens in advance for 5 minutes before the test to investigate their effects.

[2] = test system: bladder specimens enucleated from rats; assay: Calcium antagonism against bladder specimens enucleated from rats (contraction caused by calcium chloride); type: cell-based, rat (male S. D.); conditions: Rattus norvegicus; inhibition of contraction caused by 10^-3 M calcium chloride after Ca removal with 1 mM EDTA; cumulative application; corrected for spontaneous relaxation
Description: as §1
Calcium antagonism against bladder specimens enucleated from rats:
After removal of calcium ion in specimens prepared in accordance with the testing method of Test Example 1 by adding 1 mM EDTA, 10^-3 M calcium chloride was applied to the specimens. After contraction caused by calcium chloride was stable, each of agents to be tested was applied cumulatively to the specimen. Assuming that the contraction upon the first application of the test agent was 100%, a value obtained by subtracting a spontaneous relaxation rage of a specimen, to which no agent was applied, from an inhibiting rate upon the application of the agent of varied concentrations was regarded as a contraction inhibiting rate.

SMILES | IC50 [1] [nM] | IC30 [2] [nM]
CN1CCC(NC(=O)C(O)(c2ccccc2)C2CCCCC2)CC1 (stereo not shown) [Compound 2] | 434 | 
O=C(NC1CCN(Cc2ccccc2)CC1)C(O)(c1ccccc1)C1CCCCC1 (stereo not shown) [Compound 1] | 32 | 2660
CC(C)C(O)(C(=O)NC1CCN(Cc2ccccc2)CC1)c1ccccc1 (stereo not shown) [Compound 23] | 66 | 
O=C(NC1CCN(Cc2ccccc2)CC1)C(O)(c1ccccn1)C1CCCC1 (stereo not shown) [Compound 49] | 6.5 | 
Cc1ccc(C(O)(C(=O)NC2CCN(Cc3ccccc3)CC2)C(C)C)cc1 (stereo not shown) [Compound 56] | 168 | 
O=C(NC1CCN(Cc2ccccc2)CC1)C(O)(c1cccc(Cl)c1)C1CCCC1 (stereo not shown) [Compound 35] | 200 | 
O=C(NC1CCN(Cc2ccccc2)CC1)C(O)(c1ccccc1)C1CCCC1 (stereo not shown) [Compound 4] | 33.6 | 2850
COc1cccc(C(O)(C(=O)NC2CCN(Cc3ccccc3)CC2)C2CCCC2)c1 (stereo not shown) [Compound 29] | 850 | 
COc1ccc(C(O)(C(=O)NC2CCN(Cc3ccccc3)CC2)C2CCCC2)cc1 (stereo not shown) [Compound 15] | 130 | 
CCCOC(C(=O)OC1CCN(C)CC1)(c1ccccc1)c1ccccc1 [Propiverine hydrochloride, reference compound] | 784 | 12100
O=C(NC1CCN(Cc2ccccc2)CC1)C(O)(c1ccccc1)C1CC1 (stereo not shown) [Compound 3] | 27 | 26600
CC(C)C(O)(C(=O)NC1CCN(Cc2ccccc2)CC1)c1cccc(Cl)c1 (stereo not shown) [Compound 34] | 280 | 
